Measurements as given in article PMC5548745, “Agonist-induced dimer dissociation as a macromolecular step in G protein-coupled receptor signaling” (Nature Communications, 2017).
Entries after “also recorded” stand apart in the source; their conditions may differ.

Legend:
FZD6–FZD6 dimer = assay: dcFRAP of V5-FZD6-mCherry/FZD6-GFP (FZD6 dimerization); type: cell-based, human; details: HEK293; co-transfection of V5-FZD6-mCherry, FZD6-GFP and minigene; N=43 TM1, N=66 TM5
Description: For dual color FRAP experiments, cells grown in four compartment 35 mm glass bottom dishes were washed three times with BE buffer[19] (150 mM NaCl, 2.5 mM KCl, 10 mM HEPES, 12 mM glucose, 0.5 mM CaCl2, and 0.5 mM MgCl2). Then, the cells were incubated at RT for 30 min with biotin-conjugated goat polyclonal anti-V5 antibody (Bethyl) diluted 1:100 in BE buffer supplemented with 2.5% bovine serum albumin. For antibody-mediated cross-linking, avidin was added and incubated for 15 min and washed two times with BE buffer before the experiments were performed. In Fig. 4, dcFRAP experiments are presented that employ chemical surface crosslinking to visualize assembly of FZD6 with DVL or heterotrimeric G proteins according to previously published protocols. Live cell imaging experiments were carried out using a Zeiss 710 laser scanning microscope. Images were acquired using a 40×, 1.2 NA C-Apochromat objective and the 488 nm and the 561 nm laser lines were used to excite GFP and mCherry fluorophores, respectively. Photobleaching was performed by 100% laser illumination of a 1.80 × 1.80 µm area placed over the cell plasma membrane. Fluorescence was measured pre- and post-bleach using low-intensity illumination for a total time period of 100 s. Average pixel intensity was measured using the ZEN2013 software, corrected for background fluctuations and bleaching artifacts and normalized to pre-bleached intensity. The recovered mobile fraction (F m) was calculated as follows: F m = (I P–I 0)/(I I–I 0), where I I is the initial intensity measured prior to bleaching, I 0 is the immediate fluorescence intensity post-bleaching and I P is intensity value post-bleaching. The mobile fraction was defined by the average of the fluorescence recovery assessed between time 85–101 s (including pre-bleach measurements). We excluded experiments in which the extracellularly tagged receptors were not sufficiently immobilized after the crosslinking procedure (cutoff at 40% crosslinking-induced reduction in mobile fraction). Kinetic determination of mobile fractions of crosslinked V5-FZD6-mCherry and FZD6-GFP with WNT stimulation over time were performed in one cell culture well. Measurements for each time point were performed on separate cells.
Statistical and graphical analysis was performed using Graph Pad Prism 5 software. Data were analyzed by two-tailed t-test or one-way ANOVA with Fisher’s least significant difference post hoc analysis. Curve fitting of FRAP data was done with a two-phase association nonlinear function using the least square fit. Data for receptor titration in the presence of C59 and output to P-ERK1/2 in Fig. 6h was fit to a linear regression model. All experiments were repeated at least three times in independent experiments (not representing technical replicates). For single cell analysis (dcFRAP), the number of the individual ROIs obtained from several cells in at least three independent experiments is provided in the figure legends. Data from individual ROIs are summarized for data presentation providing the sum of independent observations. Significance levels are given as: *P < 0.05; **P < 0.01; ***P < 0.001. Data in FRAP curves and bar graphs (FRAP) are presented as mean ± s.e.m.

[1] = test system: ERK1/2 phosphorylation in MLE-12 cells; assay: basal P-ERK1/2 immunoblot, MLE-12 cells expressing minigenes; type: cell-based, mouse; details: transient transfection of minigene
Description: (§1) MLE-12 or HEK293 cells (ATCC) were plated in a 24- or 48-well plate at a density of 100,000 or 50,000 cells/well, respectively. After 24 h, cells were transfected using Lipofectamine 2000 according to the manufacturer’s instructions. Cells were stimulated (24 h post-transfection) with 300 ng ml^−1 recombinant carrier-free WNT-5A (CF WNT-5A; R&D Systems). Stimulation was stopped by the addition of lysis buffer (1% NP-40, 150 mM NaCl, 50 mM Tris/HCl pH 8). Lysates were sonicated and analyzed by 7.5 or 10% Mini-PROTEAN TGX precast polyacrylamide gels (Bio-Rad) and transferred to PVDF membranes using the Trans-Blot Turbo system (Bio-Rad). […] Proteins were detected with horseradish peroxidase-conjugated secondary antibodies (goat anti-rabbit and goat anti-mouse (Pierce)) and Clarity Western ECL Blotting Substrate (Bio-Rad). […]
(§2) Quantification of P-ERK1/2 is normalized to β-actin as loading control. […] P-ERK1/2, HA-TM1/5 and β-actin as loading control were assessed by PAGE/immunoblotting. […]

[2] = test system: lysophosphatidic acid receptor (endogenous); assay: lysophosphatidic acid-induced P-ERK1/2 in HEK293 cells with minigenes; type: cell-based; details: lysophosphatidic acid 10 µM, 10 min
Description: as §1, with “Cells were stimulated (24 h post-transfection) with 300 ng ml^−1 recombinant carrier-free WNT-5A (CF WNT-5A; R&D Systems).” left out
as §2

[3] = test system: HEK293 and MLE-12 cell membrane; assay: immunocytochemistry of HA-tagged minigenes without permeabilization; type: cell-based; details: 4% paraformaldehyde, no permeabilization
From the text: Supplementary Figure 7: Control experiments for assaying receptor dimerization by dcFRAP and expression of minigenes. (a) HEK293 and MLE-12 cells were transfected with HA-tagged TM1/5 minigenes, fixed in 4% paraformaldehyde and stained with an anti-HA antibody/Cy2-conjugated secondary antibody in the absence of cell permeabilization by detergents. […]
confirms both the membrane expression of the minigenes as well as the correct orientation of the peptides with the N-terminal signal sequence/HA tag on the extracellular side accessible to the primary antibody. Images were taken with a 40x objective using the 488 nm laser line on a Zeiss LSM 710 confocal microscope. Size bars – 10 µm. (b) Bar graph compares the immobile fraction in dcFRAP experiments of FZD6-GFP after CL of V5-FZD6-mCherry in cells expressing minigenes corresponding to either TM1 (control) or TM5 (competing at the dimer interface). P= […]
Error bars give s.e.m.; * P<0.05 (two-tailed t-test). (c) Transient transfection of TM5, […]
abrogation of dimer formation, in the presence of TM5, reduces receptor-mediated signaling. (d) Bar graph summarizes four independent immunoblotting experiments. P-ERK1/2 in TM1 expressing MLE-12 cells were normalized to 100%. […]
as §2

[4] = test system: protease-activated receptor (endogenous); assay: thrombin-induced P-ERK1/2 in HEK293 cells with minigenes; type: cell-based; details: thrombin 10 U/ml, 10 min
TM4 peptide of FZD6 = assay: analytical size-exclusion chromatography of TM peptides; type: binding, human; details: TDW + 0.01% DDM; 500 µM each peptide; Superdex 30; 0.8 ml min^−1; room temperature; 215 nm; 2 h incubation
Description: Analytical SEC was performed on an ÄKTA Explorer with a Superdex 30 analytical column (GE Healthcare) equilibrated with TDW + 0.01% DDM. Peptides were eluted with a flow rate of 0.8 ml min^−1 at room temperature. Elution profile was monitored by UV absorbance at 215 nm. For the binding experiments, the peptides were incubated together in TDW + 0.01% DDM at room temperature for 2 h.

FZD6-TM4 = target: T1, FZD6-TM4 (Homo sapiens, UniProt O60353); assay: isothermal titration calorimetry of TM peptides; type: binding; details: 820 µM TM5 or TM5 mut into 165 µM TM4; 0.5% DDM; 20 °C; one set of sites
T1 construct: purchased Pepscan Therapeutics (Lelystad, Netherlands); host or cells: chemical synthesis (Fmoc solid phase)
T1 sequence (O60353 with tags, fused parts or gaps limits assumed): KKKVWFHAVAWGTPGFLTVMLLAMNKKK
Description: (§3) CD spectra were recorded using a J-810 spectropolarimeter (Jasco, Easton, MD, USA) in a 0.1 cm quartz cuvette. Far-UV CD spectra were collected over 190–260 nm. ITC measurements were carried out at 20 °C on an ITC (VP–ITC 200, MicroCal). 820 µM FZD6 TM5 and 165 µM FZD6 TM4 were dissolved in 0.5% DDM in water. 2 µl of TM5 peptide were injected into 260 µl TM4 during each titration. The ITC data were analyzed with the Origin 7.0 software.

[5] = circular dichroism of synthetic TM peptides; type: physicochemical
Description: as §3
Supplementary Figure 5: Circular dichroism (CD) and isothermal titration calorimetry (ITC) experiments for structural analysis of synthetic peptides resembling TM1, 4, 5 and mutant TM5 and of peptide-peptide interactions, related to Figure 3. Synthetic peptides (for sequence see Supplementary Fig. 9) resembling TM1 (a), 4 (b), 5 (c) and mutant TM5 (d) were used for CD experiments in triple distilled water with increasing DDM concentrations (0% DDM – black, 0.01% DDM – blue, 0.1% DDM – green and 0.5% DDM – red). (c)TM5 is unstructured in TDW and begins to gain structure at 0.1% DDM. It forms a clear α-helical structure in 0.5% DDM. The triple mutated TM5 (d) forms an α-helix in a much lower DDM concentration (0.01% DDM). […]

[6] = CD, triple distilled water with 0, 0.01, 0.1, 0.5% DDM

## KKLDASRYFVLLPLCLCVFVGLSLLLAGIISKKK [TM5 minigene]
FZD6–FZD6 dimer
  effect of minigene on FZD6 dimer formation: perturbed dimer formation
[1]
  effect on basal P-ERK1/2: reduced basal P-ERK1/2
[2]
  effect on lysophosphatidic acid-induced P-ERK1/2: did not observe any difference in P-ERK1/2 induction
[3]
  membrane expression and orientation (anti-HA staining): Positive anti-HA staining in the cell membrane
[4]
  effect on thrombin-induced P-ERK1/2: did not observe any difference in P-ERK1/2 induction

## KKLDASRYFVLLPLCLCVFVGLSLLLAGIISKKK [TM5, synthetic peptide of FZD6 transmembrane helix 5]
TM4 peptide of FZD6
  SEC elution volume in combination with TM4: eluted at a greater volume than TM4 and TM5 alone
FZD6-TM4
  ITC affinity (dissociation constant, K D) to TM4: micromolar affinity; also recorded: in the micromolar range
[5]; [6]
  DDM concentration at which peptide begins to gain structure: 0.1%
  DDM concentration at which α-helix forms: 0.5%
[5]; DDM detergent solution, lipophilic environment
  secondary structure in detergent (CD): structured and α-helical
[5]; triple distilled water, 0% DDM, 190–260 nm
  secondary structure in TDW (CD): unstructured

## KKKSFIGTVSIFCLCATLFTFLTFLIKKK [TM1 minigene]
[1]
  effect on basal P-ERK1/2: did not affect basal ERK1/2 levels
[2]
  effect on lysophosphatidic acid-induced P-ERK1/2: did not observe any difference in P-ERK1/2 induction
[3]
  membrane expression and orientation (anti-HA staining): Positive anti-HA staining in the cell membrane
[4]
  effect on thrombin-induced P-ERK1/2: did not observe any difference in P-ERK1/2 induction
